The text below walks through data of patent publication US20240156800A1, “EP300 DEGRADER AND USES THEREOF IN NEUROBLASTOMA” (DANA-FARBER CANCER INSTITUTE, INC., priority 2021, published 2024).

The structures appear in SMILES notation.

One experiment deals with T1, CBP (Homo sapiens, UniProt Q92793).
T1 construct: Cells growing in culture were lysed for whole cell lysates; endogenous in cells; host or cells: Kelly, NGP, SIMA, BE2C neuroblastoma cells; Kelly xenografts in NSG mice
Put plainly: SILAC mass spectrometry of the nuclear proteome of Kelly cells (CBP). Format: cell-based. To be noted: 500 nM, 24 h, nuclear extract. The protocol: Because JQAD1 interacted preferentially with both EP300 and CRBN, whether JQAD1 preferentially induces degradation of EP300 compared to CBP in MYCN-amplified neuroblastoma cells was examined. […] To further examine the specificity of JQAD1 for EP300, an analysis of the effects of JQAD1 in stable isotope labeling by amino acids in cell culture (SILAC)-labelled Kelly cells was performed (FIG. 3F). Kelly cells were cultured with SILAC media containing heavy or light-labelled arginine and lysine. Heavy labelled cells were treated with 500 nM JQAD1, and light-labelled cells treated with dimethyl sulfoxide (DMSO) for 24 h, prior to nuclear extraction and protein lysis. […] Protein abundance was then analyzed by mass spectrometry, to determine global changes in the nuclear proteome. […] To expand upon these findings, three NB cell lines, Kelly, NGP and SIMA, which have high levels of CRBN (e.g., protein or mRNA) (FIG. 8C), were treated with JQAD, and the effects on specific proteins were measured by western blotting. […] Peptides were detected, isolated, and fragmented to produce a tandem mass spectrum of specific fragment ions for each peptide. Peptide sequences and protein identity were determined by matching protein databases with the acquired fragmentation pattern by Sequest® (Thermo Fisher Scientific) (Eng et al. J. Am. Soc. Mass Spectrom. 5:976-89 (1994)). […]

In the next experiment the target is His-tagged CRBN (Homo sapiens, UniProt Q96SW2). Nature of the experiment: AlphaLISA assay with biotinylated pomalidomide and His-tagged CRBN. The format is binding. As to conditions: competition with biotinylated pomalidomide. As for the experimental part: To determine whether JQAD1 interacts with the E3 ligase receptor CRBN, the AlphaLISA® platform was used to perform AlphaLISA® fluorescent assays using biotinylated pomalidomide bound to beads and His-tagged CRBN (Yasgar et al. Methods Mol. Biol. 1439:77-98 (2016)). […] Next, biotinylated JQAD1 (Biotin-JQAD1, Scheme 2) was synthesized and incubated with Kelly cell lysates, followed by streptavidin-based purification. […] PROTAC®s may acquire preferential specificity for one of two possible target enzymes due to restricted three-dimensional interactions, as noted in Burslem and Crews, Cell 181:102-14 (2020).
Chain of His-tagged CRBN (Q96SW2 whole entry): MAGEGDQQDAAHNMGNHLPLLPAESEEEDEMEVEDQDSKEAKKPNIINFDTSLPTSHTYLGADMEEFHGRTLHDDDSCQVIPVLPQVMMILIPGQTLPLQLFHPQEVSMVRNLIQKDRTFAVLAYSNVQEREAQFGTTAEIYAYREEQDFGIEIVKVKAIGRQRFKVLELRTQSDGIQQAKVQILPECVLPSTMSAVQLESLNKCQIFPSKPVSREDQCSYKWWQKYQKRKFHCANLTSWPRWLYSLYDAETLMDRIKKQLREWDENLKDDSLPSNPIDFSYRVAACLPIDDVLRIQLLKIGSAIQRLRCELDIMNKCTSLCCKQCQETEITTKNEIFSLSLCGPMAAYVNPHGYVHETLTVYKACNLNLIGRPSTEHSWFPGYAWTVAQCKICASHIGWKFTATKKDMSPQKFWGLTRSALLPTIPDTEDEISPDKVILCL
Chain of His-tagged CRBN (Q16531 whole entry partner): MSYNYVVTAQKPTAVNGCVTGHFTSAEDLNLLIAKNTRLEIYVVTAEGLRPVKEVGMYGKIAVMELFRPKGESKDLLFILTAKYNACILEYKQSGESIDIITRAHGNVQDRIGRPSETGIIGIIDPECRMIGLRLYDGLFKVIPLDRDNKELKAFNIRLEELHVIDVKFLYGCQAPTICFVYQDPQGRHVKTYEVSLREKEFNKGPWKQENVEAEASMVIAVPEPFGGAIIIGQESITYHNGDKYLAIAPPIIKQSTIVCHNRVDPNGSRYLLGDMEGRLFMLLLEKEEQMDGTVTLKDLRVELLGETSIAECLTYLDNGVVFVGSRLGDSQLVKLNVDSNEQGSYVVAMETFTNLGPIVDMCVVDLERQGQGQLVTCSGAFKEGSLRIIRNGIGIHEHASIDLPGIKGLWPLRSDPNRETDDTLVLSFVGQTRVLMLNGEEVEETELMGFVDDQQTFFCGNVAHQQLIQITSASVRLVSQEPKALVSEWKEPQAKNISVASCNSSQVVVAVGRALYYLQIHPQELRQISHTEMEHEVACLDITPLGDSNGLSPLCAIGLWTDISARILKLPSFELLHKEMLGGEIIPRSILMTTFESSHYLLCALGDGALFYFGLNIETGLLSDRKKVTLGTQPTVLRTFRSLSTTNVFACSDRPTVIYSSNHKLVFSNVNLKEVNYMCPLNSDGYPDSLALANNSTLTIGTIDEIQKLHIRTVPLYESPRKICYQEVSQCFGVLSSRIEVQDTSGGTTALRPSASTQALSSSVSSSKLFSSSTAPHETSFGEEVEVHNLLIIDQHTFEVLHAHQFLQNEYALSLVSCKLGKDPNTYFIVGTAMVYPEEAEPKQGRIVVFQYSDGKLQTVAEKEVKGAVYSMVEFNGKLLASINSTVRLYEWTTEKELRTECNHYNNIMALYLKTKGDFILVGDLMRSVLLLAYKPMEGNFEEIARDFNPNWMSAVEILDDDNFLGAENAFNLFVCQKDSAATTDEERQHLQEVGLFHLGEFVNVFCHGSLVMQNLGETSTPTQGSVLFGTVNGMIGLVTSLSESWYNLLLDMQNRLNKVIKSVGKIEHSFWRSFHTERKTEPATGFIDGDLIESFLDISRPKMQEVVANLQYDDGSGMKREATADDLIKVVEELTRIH
Assays were performed with minimal modifications from the manufacturer's protocol (PerkinElmer®, USA). Briefly, a 2× solution of components with final concentrations of CRBN-DDB1 at 50 nM, Ni-coated Acceptor Beads at 20 μg/ml, and 15 nM biotinylated-pomalidomide were added in […] to 384-well plates (AlphaPlate-384, PerkinElmer®, USA). 100 nL of compound in DMSO from stock plates were added by pin transfer using a Janus Workstation (PerkinElmer®, USA). Streptavidin-coated donor beads (20 μg/ml final) were added to the solution, followed by incubation at room temperature for 1 hour, and reading on an Envision 2104 (PerkinElmer®, USA), by the manufacturer's protocol.
(In general: In Alpha technology, singlet oxygen from a donor bead excites a nearby acceptor bead.)

T1 sequence (Q92793 whole entry): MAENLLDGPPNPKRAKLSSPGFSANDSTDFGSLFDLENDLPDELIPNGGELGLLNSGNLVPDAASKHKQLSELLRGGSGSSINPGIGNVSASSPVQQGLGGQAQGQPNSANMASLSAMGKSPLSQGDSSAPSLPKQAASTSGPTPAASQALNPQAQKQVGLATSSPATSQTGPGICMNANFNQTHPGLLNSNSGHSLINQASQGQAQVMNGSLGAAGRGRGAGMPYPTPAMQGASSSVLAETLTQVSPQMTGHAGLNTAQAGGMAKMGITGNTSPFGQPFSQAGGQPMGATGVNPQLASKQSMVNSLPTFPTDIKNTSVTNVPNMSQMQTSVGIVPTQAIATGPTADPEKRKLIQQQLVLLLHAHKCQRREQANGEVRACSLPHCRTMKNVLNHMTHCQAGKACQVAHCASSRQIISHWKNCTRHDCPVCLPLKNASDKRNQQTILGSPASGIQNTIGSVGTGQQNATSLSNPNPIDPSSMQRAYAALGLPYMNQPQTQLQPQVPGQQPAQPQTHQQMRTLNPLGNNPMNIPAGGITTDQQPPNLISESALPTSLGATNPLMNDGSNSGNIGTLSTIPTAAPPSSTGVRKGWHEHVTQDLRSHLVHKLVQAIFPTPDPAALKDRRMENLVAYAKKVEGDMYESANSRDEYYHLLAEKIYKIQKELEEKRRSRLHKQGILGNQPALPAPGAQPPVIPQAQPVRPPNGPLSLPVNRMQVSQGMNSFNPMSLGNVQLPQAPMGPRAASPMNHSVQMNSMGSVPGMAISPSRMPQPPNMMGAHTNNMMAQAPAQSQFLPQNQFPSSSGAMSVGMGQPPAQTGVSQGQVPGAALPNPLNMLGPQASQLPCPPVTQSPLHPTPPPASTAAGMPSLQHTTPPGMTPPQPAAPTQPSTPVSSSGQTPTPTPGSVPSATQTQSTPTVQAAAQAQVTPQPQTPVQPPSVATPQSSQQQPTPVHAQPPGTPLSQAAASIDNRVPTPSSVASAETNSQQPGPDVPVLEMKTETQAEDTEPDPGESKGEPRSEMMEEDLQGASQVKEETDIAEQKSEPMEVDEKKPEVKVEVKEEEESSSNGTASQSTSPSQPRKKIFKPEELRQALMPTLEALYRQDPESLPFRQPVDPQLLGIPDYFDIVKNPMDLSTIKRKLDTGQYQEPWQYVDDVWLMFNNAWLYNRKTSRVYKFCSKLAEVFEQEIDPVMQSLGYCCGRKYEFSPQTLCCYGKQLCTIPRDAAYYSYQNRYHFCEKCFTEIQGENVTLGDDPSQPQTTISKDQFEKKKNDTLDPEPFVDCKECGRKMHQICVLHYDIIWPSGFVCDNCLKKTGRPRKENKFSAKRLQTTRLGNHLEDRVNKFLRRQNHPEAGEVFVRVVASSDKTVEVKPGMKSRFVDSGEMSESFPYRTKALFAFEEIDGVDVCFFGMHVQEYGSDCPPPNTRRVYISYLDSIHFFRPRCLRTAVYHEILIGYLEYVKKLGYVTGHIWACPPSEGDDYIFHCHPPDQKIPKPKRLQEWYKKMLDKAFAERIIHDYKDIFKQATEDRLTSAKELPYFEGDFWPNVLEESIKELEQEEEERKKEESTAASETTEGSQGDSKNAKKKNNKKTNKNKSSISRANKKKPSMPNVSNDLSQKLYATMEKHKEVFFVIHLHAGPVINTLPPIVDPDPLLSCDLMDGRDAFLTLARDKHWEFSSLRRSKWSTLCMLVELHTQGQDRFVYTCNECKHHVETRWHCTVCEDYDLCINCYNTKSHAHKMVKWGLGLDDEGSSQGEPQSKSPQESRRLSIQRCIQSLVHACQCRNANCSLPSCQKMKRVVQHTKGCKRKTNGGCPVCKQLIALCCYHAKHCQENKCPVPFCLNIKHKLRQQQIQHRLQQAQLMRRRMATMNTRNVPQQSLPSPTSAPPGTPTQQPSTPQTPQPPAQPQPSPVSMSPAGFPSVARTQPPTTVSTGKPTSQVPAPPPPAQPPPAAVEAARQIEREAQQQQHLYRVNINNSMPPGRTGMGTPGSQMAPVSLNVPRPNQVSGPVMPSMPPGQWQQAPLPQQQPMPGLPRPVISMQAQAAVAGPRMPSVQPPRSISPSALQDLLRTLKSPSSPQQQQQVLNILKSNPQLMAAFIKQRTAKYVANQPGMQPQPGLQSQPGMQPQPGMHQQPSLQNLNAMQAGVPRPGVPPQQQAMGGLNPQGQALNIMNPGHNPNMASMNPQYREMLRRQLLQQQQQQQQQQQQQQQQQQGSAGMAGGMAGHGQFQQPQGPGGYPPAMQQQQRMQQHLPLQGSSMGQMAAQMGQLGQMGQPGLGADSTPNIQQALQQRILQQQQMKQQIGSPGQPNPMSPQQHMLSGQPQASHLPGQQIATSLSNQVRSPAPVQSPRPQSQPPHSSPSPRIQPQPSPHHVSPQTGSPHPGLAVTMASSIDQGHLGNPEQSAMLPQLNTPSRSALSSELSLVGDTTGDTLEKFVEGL

For the compound `C[C@H](N(Cc1ccc(F)cc1)C(=O)CN1C(=O)O[C@@]2(CCc3cc(NC(=O)CCCCCCCCCCCNc4ccc5c(c4)C(=O)N(C4CCC(=O)NC4=O)C5=O)ccc32)C1=O)C(F)(F)F` (stereo partly drawn) [JQAD1, 12-((2-(2,6-dioxopiperidin-3-yl)-1,3-dioxoisoindolin-5-yl)amino)-N-((R)-3′-(2-((4-fluorobenzyl)((S)-1,1,1-trifluoropropan-2-yl)amino)-2-oxoethyl)-2′,4′-dioxo-2,3-dihydrospiro[indene-1,5′-oxazolidin]-5-yl)dodecanamide], at CBP, the CBP protein abundance entry is reported as “remained detectable at similar levels as controls”. At His-tagged CRBN, the “interaction with CRBN” value is listed as “efficiently interacted with CRBN”.
